In US20260167638A1, “PHARMACEUTICAL COMPOUND, SALTS THEREOF, FORMULATIONS THEREOF, AND METHODS OF MAKING AND USING SAME” (Genentech, Inc., priority 2018, published 2026):
Several values for one entry are separate records, joined by “and”; a condition that tells them apart may be missing. Equal entries are not always repeated. Where two headings read alike, the source gives them in different places.

Legend:
[1] = Example 20 crossover pharmacokinetics of two oral tablet formulations in dogs under fed conditions; format: in vivo, beagle dogs; parameters: Plasma concentration of Compound I at 24 hours / Plasma concentration of Compound I at 36 hours / Plasma concentration of Compound I at 0.5 hours / Plasma concentration of Compound I at 1 hour / Plasma concentration of Compound I at 2 hours: unit: ng/mL; details: 200 mg tablet PO
Procedure: Pharmacokinetics parameters of formulations of Compound I and its salts in dogs were determined by orally administering a test formulation tablet at 200 mg of active (Compound I or salt) per dog.
Blood samples were taken at various times after administration, plasma prepared, and submitted to analysis for parent drug using a qualified LC-MS-MS assay. Pharmacokinetics parameters derived from the plasma analytical data were determined using non-compartmental analysis.
Pharmacokinetics of Compound I were determined in pentagastrin-pretreated male beagle dogs following a single oral (PO) administration at 200 mg/tablet/dog in a 2-phase crossover study with a washout period of at least 7 days in between each phase. Six male, non-naive, purebred beagle dogs were used in each phase of the 2-phase crossover study. All dogs were pretreated with pentagastrin (6 μg/kg intramuscular administrations) approximately 30 minutes before test article administration.
Two tablet formulations (nanosuspension and mono-tosylate salt, as described above) of test article were assessed. Phase 1 animals were given tablets containing Compound I nanosuspension. Phase 2 animals were given tablets containing Compound I mono-tosylate salt. Animals in both phases were fasted overnight through approximately 4 hours postdose, and received a 100-mL volume of homogenized Food and Drug Administration (FDA) high fat diet by oral gavage at approximately 30 minutes prior to test article administration, followed by a 7 to 10-mL flush with water. Blood samples were collected pre-dose and at 0.25. 0.5, 1. 2. 4. 8, 24, 36, and 48 hours after the oral dose. Plasma was harvested, and the concentration of Compound I in each plasma sample was determined by an LC/MS/MS assay. The assay lower limit of quantitation was 20 ng/mL for Compound I.
Mean Compound I concentrations measured in plasma were used to construct semi-logarithmic plasma concentration-time curves (FIG. 14). Pharmacokinetic analysis was performed using non-compartmental methods.

[2] = Solubility in pure water at 25° C. with PXRD of solid residues; format: physicochemical
Procedure: Using a similar strategy as described above, these salts were prepared by evaporation from a solution of free base and acid in a solvent (e.g., methanol-dichloromethane 1:1, ethyl acetate-dichloromethane 1:2, isopropanol, and the like). If necessary, an amorphous salt produced in this way was crystallized by stirring the amorphous material in an appropriate solvent (e.g., ethyl acetate, acetonitrile, and the like).

[3] = Example 20, fed dogs (high fat diet), individual subjects, mono-tosylate salt
[4] = Example 20, fed dogs, individual subjects, LLOQ 20 ng/mL, mono-tosylate salt
[5] = male, beagle, dog, plasma, po, 200 mg, Example 20, fed dogs (high fat diet), mean

For Cc1ccc(S(=O)(=O)O)cc1.Cn1cc(-c2cn(-c3ccc(OC(F)(F)F)cc3)c(=O)c3ncn(C)c23)cn1 [mono-tosylate, 1-methyl-7-(1-methyl-1H-pyrazol-4-yl)-5-(4-(trifluoromethoxy)phenyl)-1,5-dihydro-4H-imidazo[4,5-c]pyridin-4-one, mono-tosylate salt], the AUC0-last [1, 3] was 59000 ng·h/mL and 75300 ng·h/mL and 68500 ng·h/mL and 26200 ng·h/mL and 16000 ng·h/mL and 47500 ng·h/mL, the AUC0-rt [1, 3] was 59700 ng·h/mL and 70100 ng·h/mL and 26200 ng·h/mL and 47700 ng·h/mL and the Cmax [1, 3] was 5340 ng/mL and 8590 ng/mL and 5160 ng/mL and 4930 ng/mL and 3490 ng/mL and 5080 ng/mL. For the same compound, the “Plasma concentration of Compound I at 48 hours” value ([1]; Example 20, fed dogs, individual subjects, LLOQ 20 ng/mL) was “BLQ”, the “Plasma concentration of Compound I at 0.25 hours” value [1, 4] was “BLQ (4×) and 381 and 41.0” and the “Plasma concentration of Compound I at 1 hour” value [1, 4] was 107 and 6070 and 2340 and 3330 and 1200 and 97.9. The “Plasma concentration of Compound I at 2 hours” value [1, 4] was 2010 and 8270 and 5160 and 4930 and 2020 and 5080, the “Plasma concentration of Compound I at 4 hours” value [1, 4] was 5340 and 8590 and 4020 and 3770 and 3490 and 4530 and the “Plasma concentration of Compound I at 8 hours” value [1, 4] was 3240 and 4900 and 1480 and 1020 and 1200 and 2920. For the same compound, the “Plasma concentration of Compound I at 48 hours” value ([1]; Example 20, fed dogs, mean, LLOQ 20 ng/mL) was “BLQ”, the tmax ([1]; male, beagle, dog, plasma, po, 200 mg, Example 20, fed dogs (high fat diet), individual subjects) was 4 h and the AUC(0-t) [1, 5] was 48800 ng·h/mL. The tmax [1, 5] was 3 h, the AUC ([1]; male, beagle, dog, plasma, po, 200 mg, Example 20, fed dogs (high fat diet), mean, read-out: AUC0-rt) was 50900 ng·h/mL and the Cmax ([1]; male, beagle, dog, plasma, po, 200 mg, Example 20, fed dogs (high fat diet), mean, read-out: Cmax) was 5430 ng/mL. It also gave a concentration at 0.25 h ([1]; male, beagle, dog, plasma, po, 200 mg/tablet/dog, Example 20, fed dogs, mean, LLOQ 20 ng/mL, read-out: Plasma concentration of Compound I at 0.25 hours) of 70.3 ng/mL, a concentration at 0.5 h ([1]; male, beagle, dog, plasma, po, 200 mg/tablet/dog, Example 20, fed dogs, mean, LLOQ 20 ng/mL, read-out: Plasma concentration of Compound I at 0.5 hours) of 717 ng/mL and a concentration at 1 h ([1]; male, beagle, dog, plasma, po, 200 mg/tablet/dog, Example 20, fed dogs, mean, LLOQ 20 ng/mL, read-out: Plasma concentration of Compound I at 1 hour) of 2190 ng/mL. For the same compound, the concentration at 2 h ([1]; male, beagle, dog, plasma, po, 200 mg/tablet/dog, Example 20, fed dogs, mean, LLOQ 20 ng/mL, read-out: Plasma concentration of Compound I at 2 hours) was 4580 ng/mL, the concentration at 4 h ([1]; male, beagle, dog, plasma, po, 200 mg/tablet/dog, Example 20, fed dogs, mean, LLOQ 20 ng/mL, read-out: Plasma concentration of Compound I at 4 hours) was 4960 ng/mL and the concentration at 8 h ([1]; male, beagle, dog, plasma, po, 200 mg/tablet/dog, Example 20, fed dogs, mean, LLOQ 20 ng/mL, read-out: Plasma concentration of Compound I at 8 hours) was 2460 ng/mL. The concentration at 24 h ([1]; male, beagle, dog, plasma, po, 200 mg/tablet/dog, Example 20, fed dogs, mean, LLOQ 20 ng/mL, read-out: Plasma concentration of Compound I at 24 hours) was 847 ng/mL, the concentration at 36 h ([1]; male, beagle, dog, plasma, po, 200 mg/tablet/dog, Example 20, fed dogs, mean, LLOQ 20 ng/mL, read-out: Plasma concentration of Compound I at 36 hours) was 79.7 ng/mL and the “pH (24 hrs)” value ([2]; pH of solubility sample, pure water, 25° C., 24 hours) was 1.53. For the same compound, the “pH (1 hr)” value ([2]; pH of solubility sample, pure water, 25° C., one hour) was 1.47, the “S 24 hrs” value ([2]; pure water, 25° C., 24 hours equilibration) was 1.24 mg/mL and the “S 1 hr” value ([2]; pure water, 25° C., one hour) was 2.54 mg/mL. It also gave a solubility at 24 h ([2]; water, 25 °C, water, thermodynamic from solid, Table 5: free base and crystalline salt forms) of 1240 µg/mL.
